Laboratory results as given in US6162810A, “Inadone and tetralone compounds for inhibiting cell proliferation” (The Regents of the University of California, priority 1998, dated 2000).
Entries after “also recorded” stand apart in the source; their conditions may differ.

What was measured:
CEM = experiment: Growth inhibition of CEM (wild type); format: cell-based; conditions: Homo sapiens, CCRF-CEM, ±1 SD, n>5
tubulin [1] = experiment: Inhibition of [3H]vinblastine binding to tubulin; parameters: species or system bovine; conditions: single experiment
Experimental: The TB compounds of the invention (as represented by TB compound IK-178), are nearly as potent as the strong tubulin assembly inhibitor, combretastatin A-4 (CS-A4). In particular, the GI^50 inhibitory concentration of CS-A4 was 1.2±0.03 μM (n=4), while that of TB compound IK-178 was 1.7±0.1 μM (n=3).

HL-60/ADR = experiment: Growth inhibition of HL-60/ADR (MDR); format: cell-based; conditions: Homo sapiens, HL60/ADR, ±1 SD, n>5
MCF-7 = experiment: Growth inhibition of MCF-7 (wild type); format: cell-based; conditions: Homo sapiens, MCF7, ±1 SD, n>5
MV522 = experiment: Growth inhibition of MV522 (wild type); format: cell-based; conditions: Homo sapiens, ±1 SD, n>5
MES-SA/DX5 = experiment: Growth inhibition of MES-SA/DX5 (MDR); format: cell-based; conditions: Homo sapiens, ±1 SD, n>5
[2] = system: normal peripheral blood lymphocytes; experiment: Viability of normal peripheral blood lymphocytes; format: cell-based; conditions: as much as 1000-fold higher concentrations, 72 hours
HL-60/ADR cells = experiment: Apoptosis of HL-60/ADR cells (FACS); format: cell-based, human
Experimental: FACS analysis was performed to determine the influence of the TB compounds of the invention on growth cycling of cells (the analysis was performed on harvested cells, fixed in ice-cold 70% ethanol solution, then treated with 100 μg/ml of RNAse A and stained with 50 μg/ml propidium iodide for 1 h at 37° C. DNA content of the cells was analyzed by flow cytometry (Becton Dickinson FACScalibur), and the cell cycle distribution was calculated with the program ModFit LT 2.0 (Verity Software)).
First, the stage at which the TB compounds of the invention arrest growth of HL-60 and HL-60/ADR cells was determined by FACS analysis and caspase-3 activation as described above.

MCF-7/ADR = experiment: Growth inhibition of MCF-7/ADR (MDR); format: cell-based; conditions: Homo sapiens, NCI/ADR-RES, ±1 SD, n>5
[3] = system: HL-60/ADR and MDF-7/ADR cells; experiment: MTT assay, visual comparison of cells with and without MDR (FIGS. 1 and 2); format: cell-based, human; conditions: 3 days
[4] = system: caspase-3 in HL-60/ADR cells; experiment: Caspase-3 activation in HL-60/ADR cells; format: cell-based, human; conditions: 10 nM
tubulin [5] = experiment: Inhibition of tubulin assembly; format: biochemical, bovine; conditions: 10 μM tubulin, 20 min incubation, 30° C.; read-out: GI50 inhibitory concentration (tubulin assembly)
Experimental: (§1) To evaluate the effects of the TB compounds of the invention on tubulin, bovine brain tubulin (2.2 mg/ml) was incubated in PEM80 (80 mM K-PIPES, 1 mM MgCl2, 1 mM EGTA) containing 10% glycerol and 2 mM GTP for 30 minutes at 37° C. in the presence or absence of 20 μg/ml nocodazole, 1 mM paclitaxel, or TB compound no. IK-178 at various concentrations. Tubulin polymer was resolved from monomer by sedimentation through a cushion of 60% glycerol in PEM80 at 70,000 rpm for 30 min at 37° C. in a Beckman TLA100 rotor. A fraction of the supernatant was removed for analysis, the cushion washed and then aspirated, and the pellet resuspended in SDS-PAGE sample buffer. Equal proportions of the supernatant and the pellet were then resolved by SDS-PAGE and tubulin visualized by staining with Coomassie blue.
(§2) The quantitative assessment of drug inhibition of tubulin polymerization and evaluation of inhibition of [^3 H]colchicine binding to tubulin were then performed. […] Samples were placed on ice and GTP (0.4 mM) was added. Reaction mixtures were transferred to 0° C. cuvettes in Gilford 250 spectrophotometers, baselines were establishes/d, and the temperature was jumped to 30° C. with electronic temperature controllers (about 60 sec). The IC^50 was defined as the drug concentration required to inhibit extent of assembly after a 20 min incubation. […]

caspase-3 in HL-60 cells = experiment: Caspase-3 activation in HL-60 cells; format: cell-based, human
KB-3-1 = experiment: Growth inhibition of KB-3-1 (wild type); format: cell-based; conditions: Homo sapiens, ±1 SD, n>5
KB-GRC-1 and MV522/Q6 = experiment: MTT proliferation assay of mdr1 overexpressing transfectomas; format: cell-based, human; conditions: 72 h
HL-60 = experiment: Growth inhibition of HL-60 (wild type); format: cell-based; conditions: Homo sapiens, ±1 SD, n>5
KB-GRC-1 = experiment: Growth inhibition of KB-GRC-1 (MDR); format: cell-based; conditions: Homo sapiens, MDR1, ±1 SD, n>5
[6] = system: caspase-3 in MCF-7/ADR cells; experiment: Caspase-3 activation in noncycling MCF-7/ADR cells; format: cell-based, human
Experimental: Briefly, cell extracts were prepared from 5×10^6 cells in 100 μl of a lysis buffer (25 mM TrisHCl, pH 7.5, 150 mM KCl, 5 mM EDNA, 1% Nonidet P-40, 0.5% sodium deoxycholate, and 0.1% SDS) and maintained on ice for 10 min, followed by centrifugation at 14,000×g for 5 min at 4° C. The resulting supernatants were collected and frozen at -80° C. or used immediately. Lysates (20 μl, 5-10 μg of total protein) were mixed with 30 μl of assay buffer (50 mM PIPES, 50 mM KC, 5 mM EGTA, 2 mM MgCl2, 1 mM dithiothreitol (DTT), and 0.1 phenylmethanesulfonyl fluoride (PMSF)), containing 100 μM of Z-DEVD-AFC. Caspase-3-like protease activity was measured at 37° C. using a spectrofluorometric plate reader (Perkin-Elmer, LS50B) in the kinetic mode with excitation and emission wavelengths of 400 and 505 nm, respectively. Activity was measured by the release of […] from the synthetic substrate Z-DEVD-AFC (Biomol, Plymouth Meeting, Pa.).

MDA3-1/gp170 = experiment: Growth inhibition of MDA3-1/gp170 (MDR); format: cell-based; conditions: Homo sapiens, MDR1, ±1 SD, n>5
CEM/VLB100 = experiment: Growth inhibition of CEM/VLB100 (MDR); format: cell-based; conditions: Homo sapiens, ±1 SD, n>5
[7] = system: tubulin (colchicine-binding site); experiment: Inhibition of [3H]colchicine binding to tubulin; parameters: species or system bovine; conditions: 5 μM compound, 5 μM [3H]colchicine, 1 μM tubulin, n=4
Experimental: as §1, §2

MV522/Q6 = experiment: Growth inhibition of MV522/Q6 (MDR); format: cell-based; conditions: Homo sapiens, ±1 SD, n>5
MCF-7/ADR cells = experiment: Cell death of stationary phase MCF-7/ADR cells (FACS); format: cell-based, human; conditions: noncycling MCF-7/ADR cells
MCF-7 wild type cells = experiment: Cell death of stationary phase MCF-7 wild type cells (FACS); format: cell-based, human; conditions: MCF-7 wild type (parental) cells
MES-SA = experiment: Growth inhibition of MES-SA (wild type); format: cell-based; conditions: Homo sapiens, ±1 SD, n>5
human cancer cell lines = experiment: Hollow fiber assay, in vivo growth inhibitory activity; parameters: species or system human cells in mice
Experimental: To screen the compounds of the invention for growth inhibitory activity, a hollow fiber assay test was performed according to the protocol established by the National Cancer Institute's Developmental Therapeutics Program.
Briefly, according to the National Cancer Institute, the hollow fiber assay is performed as follows:
For these assays, human tumor cells are cultivated in polyvinylidene fluoride (PVDF) hollow fibers, and a sample of each cell line is implanted into each of two physiologic compartments (intraperitoneal and subcutaneous) in mice. Each test mouse receives a total of 6 fibers (3 intraperitoneally and 3 subcutaneously) representing 3 distinct cancer cell lines. Three mice are treated with potential antitumor compounds at each of 2 test doses by the intraperitoneal route using a QD×4 treatment schedule. Vehicle controls consist of 6 mice receiving the compound diluent only. The fiber cultures are collected on the day following the last day of treatment. To assess anticancer effects, viable cell mass is determined for each of the cell lines using a formazan dye (MTT) conversion assay. From this, the % T/C can be calculated using the average optical density of the compound treated samples divided by the average optical density of the vehicle controls. In addition, the net increase in cell mass can be determined for each sample as a sample of fiber cultures are assessed for viable cell mass on the day of implantation into mice. Thus, the cytostatic and cytocidal capacities of the test compound can be assessed.
This represents a total of 4 experiments since each experiment contains 3 cell lines. The data are reported as % T/C for each of the 2 compound doses against each of the cell lines with separate values calculated for the intraperitoneal and subcutaneous samples.
Compounds are selected for further in vivo testing in standard subcutaneous xenograft models on the basis of several hollow fiber assay criteria. […] The intraperitoneal and subcutaneous samples are scored separately so that criteria (1) and (2) can be evaluated. […]

MDA-MB-321 = experiment: Growth inhibition of MDA-MB-321 (wild type); format: cell-based; conditions: Homo sapiens, ±1 SD, n>5

## COc1cc2c(c(N)c1OC)C(=O)/C(=C\c1cc(C)c(O)c(C)c1)C2 [IK-178]
CEM
  GI50: 12 ± 2 nM
Tubulin [1]
  inhibition of [3H]vinblastine binding to tubulin: Neither agent inhibited
HL-60/ADR
  GI50: 2 ± 0.2 nM
MCF-7
  GI50: 20 ± 5 nM
MV522
  GI50: 13 ± 3 nM
MES-SA/DX5
  GI50: 12 ± 3 nM
[2]
  loss of viability: no loss of viability
HL-60/ADR cells
  apoptosis: became apoptotic; also recorded: did induce
MCF-7/ADR
  GI50: 4 ± 1 nM
[3]
  sensitivity with acquisition of MDR: retained, and even enhanced
[4]
  time of maximum caspase-3 activity: 24 h
[4]; compared with untreated cells
  caspase-3 activity: time-dependent increase in caspase-3 activity
Tubulin [5]
  GI50: 1700 ± 100 nM
caspase-3 in HL-60 cells; HL-60 cells
  caspase-3 activity: only a slight increase
caspase-3 in HL-60 cells; HL-60 wild type vs HL-60/ADR
  caspase-3 activity relative to the level in the multidrug resistant cells: about a quarter
KB-3-1
  GI50: 7 ± 2 nM
KB-GRC-1 and MV522/Q6
  sensitivity of transfectomas overexpressing mdr1: retained complete sensitivity
HL-60
  GI50: 40 ± 3 nM
KB-GRC-1
  GI50: 7 ± 3 nM
[6]
  activation of caspase-3: activation of caspase-3
MDA3-1/gp170
  GI50: 25 ± 2 nM
CEM/VLB100
  GI50: 20 ± 1 nM
[7]
  inhibition of [3H]colchicine binding: 95±2%
MV522/Q6
  GI50: 8 ± 2 nM
MCF-7/ADR cells
  cell death / apoptosis: appearance of an apoptotic sub-G0 /G1 peak
MCF-7/ADR cells; listed as indanocine
  cell death / apoptosis: die following treatment
MCF-7 wild type cells
  cell death / apoptosis: growth-arrested but did not show any apoptotic features
MES-SA
  GI50: 85 ± 6 nM
Human cancer cell lines; IP + SC
  TOTAL SCORE (IP + SC): 24
Human cancer cell lines; intraperitoneal fibers, intraperitoneal treatment QD×4
  IP SCORE: 18
Human cancer cell lines; subcutaneous fibers, intraperitoneal treatment QD×4
  SC SCORE: 6
MDA-MB-321
  GI50: 10 ± 3 nM
